Data reported in PubChem BioAssay AID1919013 (Molecular Pharmacology Branch, DTP, NCI, 2023).

System: LG0703-F498-PDC complex spheroid growth
Assay: Anticancer human tumor LG0703-F498-PDC patient-derived lung adenocarcinoma cell line growth inhibition [AhR]
Conditions: for IC50: curve of first compound; for viability, T/C: stronger effect = lower value
Outline: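 Spheroids combined tumor cells with HUVEC endothelial cells and human MSCs as stroma. AhR antagonists were paired with standard or investigational drugs, each dosed in half-log steps down from near clinical Cmax, or from 10 microM where Cmax was unknown.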

[1] = second compound 0.1 µM, first compound 0.0316 µM
[2] = second compound 0.1 µM, first compound 0.1 µM
[3] = second compound 0.1 µM, first compound 0.316 µM
[4] = second compound 0.1 µM, first compound 1 µM
[5] = second compound 0.1 µM, first compound 3.16 µM
[6] = second compound 0.1 µM, first compound 10 µM
[7] = second compound 0.316 µM, first compound 0.0316 µM
[8] = second compound 0.316 µM, first compound 0.1 µM
[9] = second compound 0.316 µM, first compound 0.316 µM
[10] = second compound 0.316 µM, first compound 1 µM
[11] = second compound 0.316 µM, first compound 3.16 µM
[12] = second compound 0.316 µM, first compound 10 µM
[13] = second compound 1 µM, first compound 0.0316 µM
[14] = second compound 1 µM, first compound 0.1 µM
[15] = second compound 1 µM, first compound 0.316 µM
[16] = second compound 1 µM, first compound 1 µM
[17] = second compound 1 µM, first compound 3.16 µM
[18] = second compound 1 µM, first compound 10 µM
[19] = second compound 3.16 µM, first compound 0.0316 µM
[20] = second compound 3.16 µM, first compound 0.1 µM
[21] = second compound 3.16 µM, first compound 0.316 µM
[22] = second compound 3.16 µM, first compound 1 µM
[23] = second compound 3.16 µM, first compound 3.16 µM
[24] = second compound 3.16 µM, first compound 10 µM
[25] = second compound 10 µM, first compound 0.0316 µM
[26] = second compound 10 µM, first compound 0.1 µM
[27] = second compound 10 µM, first compound 0.316 µM
[28] = second compound 10 µM, first compound 1 µM
[29] = second compound 10 µM, first compound 3.16 µM
[30] = second compound 10 µM, first compound 10 µM
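Further: luminescence taken as a proxy for viable cell amount.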
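Wherever viability, T/C is given: percent of DMSO vehicle control where 100% means growth equal to vehicle.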

## Nc1ccccc1NC(=O)c1ccc(CNC(=O)OCc2cccnc2)cc1 + Cc1ccccc1N=Nc1ccc(NC(=O)c2ccnn2C)c(C)c1
Second compound 0.1 µM
  IC50: 1140 nM
Second compound 0.316 µM
  IC50: 895 nM
Second compound 1 µM
  IC50: 1080 nM
Second compound 3.16 µM
  IC50: 940 nM
Second compound 10 µM
  IC50: 1390 nM
[1]
  viability, T/C: 89.8%
[2]
  viability, T/C: 95.3%
[3]
  viability, T/C: 88.6%
[4]
  viability, T/C: 54%
[5]
  viability, T/C: 13.7%
[6]
  viability, T/C: 1.74%
[7]
  viability, T/C: 103%
[8]
  viability, T/C: 93.3%
[9]
  viability, T/C: 78.7%
[10]
  viability, T/C: 48.4%
[11]
  viability, T/C: 14.3%
[12]
  viability, T/C: 1.58%
[13]
  viability, T/C: 87.8%
[14]
  viability, T/C: 78.3%
[15]
  viability, T/C: 77.3%
[16]
  viability, T/C: 53%
[17]
  viability, T/C: 15.2%
[18]
  viability, T/C: 2.52%
[19]
  viability, T/C: 73.9%
[20]
  viability, T/C: 75.5%
[21]
  viability, T/C: 69.3%
[22]
  viability, T/C: 48%
[23]
  viability, T/C: 20%
[24]
  viability, T/C: 3.32%
[25]
  viability, T/C: 76.8%
[26]
  viability, T/C: 88.6%
[27]
  viability, T/C: 79.4%
[28]
  viability, T/C: 54.3%
[29]
  viability, T/C: 32.1%
[30]
  viability, T/C: 10.9%

## O=C(c1cc(Cc2n[nH]c(=O)c3ccccc23)ccc1F)N1CCN(C(=O)C2CC2)CC1 + Cc1ccccc1N=Nc1ccc(NC(=O)c2ccnn2C)c(C)c1
Second compound 0.1 µM
  IC50: > 10000 nM
Second compound 0.316 µM
  IC50: > 10000 nM
Second compound 1 µM
  IC50: > 10000 nM
Second compound 3.16 µM
  IC50: > 10000 nM
Second compound 10 µM
  IC50: > 10000 nM
[1]
  viability, T/C: 89.3%
[2]
  viability, T/C: 94.8%
[3]
  viability, T/C: 89.8%
[4]
  viability, T/C: 93.8%
[5]
  viability, T/C: 85.7%
[6]
  viability, T/C: 84.6%
[7]
  viability, T/C: 96.5%
[8]
  viability, T/C: 119%
[9]
  viability, T/C: 95.7%
[10]
  viability, T/C: 102%
[11]
  viability, T/C: 102%
[12]
  viability, T/C: 79.9%
[13]
  viability, T/C: 86.7%
[14]
  viability, T/C: 98%
[15]
  viability, T/C: 88.7%
[16]
  viability, T/C: 94.4%
[17]
  viability, T/C: 90.2%
[18]
  viability, T/C: 82.2%
[19]
  viability, T/C: 82.1%
[20]
  viability, T/C: 97.1%
[21]
  viability, T/C: 83.5%
[22]
  viability, T/C: 86.9%
[23]
  viability, T/C: 83.9%
[24]
  viability, T/C: 73.9%
[25]
  viability, T/C: 85.6%
[26]
  viability, T/C: 93%
[27]
  viability, T/C: 94.5%
[28]
  viability, T/C: 77.8%
[29]
  viability, T/C: 72.3%
[30]
  viability, T/C: 70.5%
